The results in this text go back to ChEMBL document CHEMBL1127135, “Synthesis and biological properties of 3-[()-2-(1,2,3-Thiadiazolyl)ethenyl]-substituted cephalosporins and related compounds: new oral cephalosporins” (Bioorg Med Chem Lett, 1993).

Converted amounts (≈) assume the structure as drawn. Where only a bound is given, the exact number is not on record here.

The nature of data set [1]: Evaluated for pharmacokinetic parameter urine recovery in rat at the dose 50 mg/kg ( 0-24 hr ). The class given is ADME, organism-based. Also on record: dose 50 mg/kg. The settings on record: read-out: UR.
The nature of data set [2]: Evaluated for pharmacokinetic parameter Cmax in mouse at the dose 20 mg/kg. Also on record: dose 20 mg/kg. Format: ADME, organism-based. The settings on record: in vivo.
A short description of data set [3]: Evaluated for pharmacokinetic parameter half-life in rabbit at the dose 20 mg/kg. The class given is ADME, organism-based, Oryctolagus cuniculus. Also on record: dose 20 mg/kg. The following applies: in vivo.
A short description of data set [4]: Evaluated for pharmacokinetic parameter area under curve in mouse at the dose 20 mg/kg (0-4 hr). The settings on record: in vivo. Format: ADME, organism-based. Further details: time < 4 hr, dose 20 mg/kg.
A short description of data set [5]: Evaluated for pharmacokinetic parameter tmax in rabbit at the dose 20 mg/kg. Format: ADME, organism-based, Oryctolagus cuniculus. Further details: dose 20 mg/kg. The settings on record: in vivo.
The nature of data set [6]: Evaluated for pharmacokinetic parameter area under curve in rat at the dose 50 mg/kg ( 0-8 hr ). Format: ADME, organism-based. The following applies: in vivo. Also on record: time < 8 hr, dose 50 mg/kg.
Data set [7] is described as follows: Evaluated for pharmacokinetic parameter Cmax in rabbit at the dose 20 mg/kg. The settings on record: in vivo. Further details: dose 20 mg/kg. The class given is ADME, organism-based, Oryctolagus cuniculus.
Data set [8] is described as follows: Evaluated for pharmacokinetic parameter urine recovery in rabbit at the dose 20 mg/kg ( 0-24 hr ). Format: ADME, organism-based, Oryctolagus cuniculus. The settings on record: read-out: UR. Further details: dose 20 mg/kg.
Data set [9] in a line: Evaluated for pharmacokinetic parameter tmax in mouse at the dose 20 mg/kg. Further details: dose 20 mg/kg. The settings on record: in vivo. Format: ADME, organism-based.
A short description of data set [10]: Evaluated for pharmacokinetic parameter half-life in mouse at the dose 20 mg/kg. Format: ADME, organism-based. Further details: dose 20 mg/kg. The following applies: in vivo.
Data set [11] can be described thus: Evaluated for pharmacokinetic parameter tmax in rat at the dose 50 mg/kg. The settings on record: in vivo. Further details: dose 50 mg/kg. The class given is ADME, organism-based.
The nature of data set [12]: Evaluated for pharmacokinetic parameter half-life in rat at the dose 50 mg/kg. Further details: dose 50 mg/kg. The following applies: in vivo. Format: ADME, organism-based.
Data set [13] is described as follows: Evaluated for pharmacokinetic parameter Cmax in rat at the dose 50 mg/kg. Further details: dose 50 mg/kg. The class given is ADME, organism-based. The following applies: in vivo.
Data set [14] is described as follows: Evaluated for pharmacokinetic parameter urine recovery in mouse at the dose 20 mg/kg ( 0-24 hr ). Format: ADME, organism-based. Also on record: dose 20 mg/kg. The settings on record: read-out: UR.
Data set [15] is described as follows: Evaluated for pharmacokinetic parameter area under curve in rabbit at the dose 20 mg/kg ( 0-4 hr ). Format: ADME, organism-based, Oryctolagus cuniculus. Further details: time < 4 hr, dose 20 mg/kg. The following applies: in vivo.
The subject of data set [16] is Escherichia coli. Description: Antibacterial activity against Escherichia coli NIHJ JC-2 was determined. Format: functional.
In data set [17] the test system is Klebsiella pneumoniae. Description: Antibacterial activity against Klebsiella pneumoniae IFO 3317 was determined. The class given is functional.
Data set [18] has as its system Staphylococcus aureus. Description: Antibacterial activity against Staphylococcus aureus 209P-JC was determined. The class given is functional.
Data set [19] concerns Proteus mirabilis. The experiment in a line: Antibacterial activity against Proteus mirabilis IFO3849 was determined. The class given is functional.
Data set [20] has as its system Escherichia coli. The experiment in a line: Antibacterial activity against Escherichia coli ATCC 25922 was determined. Format: functional.
The test system of data set [21] is Providencia rettgeri. Description: Antibacterial activity against Providencia rettgeri IFO3850 was determined. Format: functional.
Data set [22] has as its system Serratia marcescens. The experiment in a line: Antibacterial activity against Serratia marcescens IID 618 was determined. The class given is functional.
The test system of data set [23] is Enterococcus hirae. The experiment in a line: Antibacterial activity against Enterococcus hirae ATCC 8043 was determined. Format: functional.
The subject of data set [24] is Morganella morganii. Description: Antibacterial activity against Morganella morganii IID 602 was determined. The class given is functional.
Data set [25] has as its system Staphylococcus epidermidis. The experiment in a line: Antibacterial activity against Staphylococcus epidermidis IID 866 was determined. Format: functional.
For data set [26], the system named is Proteus vulgaris. Description: Antibacterial activity against Proteus vulgaris HX-19 was determined. Format: functional.
Data set [27] has as its system Staphylococcus aureus. The experiment in a line: Antibacterial activity against Staphylococcus aureus ATCC 25923 was determined. Format: functional.
The test system of data set [28] is Staphylococcus aureus. Description: Antibacterial activity against Staphylococcus aureus Smith was determined. The class given is functional.
Data set [29] relates to Micrococcus luteus. Description: Antibacterial activity against Micrococcus luteus ATCC 9341 was determined. The class given is functional.
Data set [30] concerns Enterobacter cloacae. The experiment in a line: Antibacterial activity against Enterobacter cloacae 963 was determined. Format: functional.
The test system of data set [31] is Pseudomonas aeruginosa. Description: Antibacterial activity against Pseudomonas aeruginosa NCTC 10490 was determined. The class given is functional.
The subject of data set [32] is Klebsiella aerogenes. The experiment in a line: Antibacterial activity against Enterobacter aerogenes IFO 13048 was determined. The class given is functional.
Data set [33] has as its system Moraxella catarrhalis. The experiment in a line: Antibacterial activity against M(B). catarrhalis ATCC 25238 was determined. The class given is functional.

For `CC(C)(C)C(=O)OCOC(=O)C1=C(/C=C\c2csnn2)CSC2C(NC(=O)/C(=N\O)c3csc(N)n3)C(=O)N12` (stereo not drawn), the dose excreted in data set [1] is 9.5%; in [8] it was 17.2%; in data set [14] it was 42.8%. For the same molecule, the highest concentration (Cmax) in [2] was found to be 20500 ng/mL; in data set [7] it was 2400 ng/mL; in data set [13], 15200 ng/mL. Besides, the half-life in [3] was 2.3 h; in data set [10] it was 2.7 h; in data set [12] it was 1.8 h. The AUC at 4 h in [4] turned out to be 62000 ng·h/mL; in [15] it was 10500 ng·h/mL. The time to peak (Tmax) in data set [5] stood at 1 h; in data set [9] it was 0.5 h; in data set [11] it was 1 h. The molecule further gave an exposure (AUC) at 8 h in data set [6] of 37900 ng·h/mL.
As to `Cc1nnsc1/C=C\C1=C(C(=O)O)N2C(=O)C(NC(=O)/C(=N\O)c3csc(N)n3)C2SC1` (stereo not drawn), the MIC in data set [16] is 0.1 µg/mL (≈ 0.203 µM); in data set [17] it was 0.05 µg/mL (≈ 0.101 µM); in data set [18], 0.2 µg/mL (≈ 0.405 µM); in data set [19], 0.1 µg/mL (≈ 0.203 µM); in [20], 0.2 µg/mL (≈ 0.405 µM); in data set [21] it was at most 0.006 µg/mL. Further, the MIC in data set [22] is 0.78 µg/mL (≈ 1.58 µM); in data set [23] it was 25 µg/mL (≈ 50.7 µM); in data set [24], 0.05 µg/mL (≈ 0.101 µM); in data set [25] it was 0.2 µg/mL (≈ 0.405 µM).
Turning to `Cc1snnc1/C=C\C1=C(C(=O)O)N2C(=O)C(NC(=O)/C(=N\O)c3csc(N)n3)C2SC1` (stereo not drawn), the MIC in data set [16] was determined as 0.39 µg/mL (≈ 0.79 µM); in data set [26] it was 0.05 µg/mL (≈ 0.101 µM); in data set [27], 0.39 µg/mL (≈ 0.79 µM); in data set [17], 0.025 µg/mL (≈ 0.0507 µM); in data set [28], 0.2 µg/mL (≈ 0.405 µM); in [29], 0.025 µg/mL (≈ 0.0507 µM). For the same molecule, the minimum inhibitory concentration (MIC) was 0.39 µg/mL (≈ 0.79 µM) in [30]; 0.2 µg/mL (≈ 0.405 µM) in data set [18]; over 100 µg/mL in data set [31]; 0.39 µg/mL (≈ 0.79 µM) in data set [19]; 0.2 µg/mL (≈ 0.405 µM) in [20]; at most 0.006 µg/mL in data set [21]. For the same molecule, the MIC in data set [22] was found to be 0.78 µg/mL (≈ 1.58 µM); in data set [23], 25 µg/mL (≈ 50.7 µM); in data set [24] it was 0.05 µg/mL (≈ 0.101 µM); in [32], 0.78 µg/mL (≈ 1.58 µM); in [25], 0.39 µg/mL (≈ 0.79 µM); in [33], 0.05 µg/mL (≈ 0.101 µM).
